Converted amounts (≈) assume the structure as drawn.
How the values were obtained:
Type in all cases: physicochemical
[1] = Thermodynamic aqueous solubility
Description: Thermodynamic Aqueous Solubility
The suspension was equilibrated at 25° C. for 24 hours then the pH was measured. The suspension was then filtered through a glass fibre C filter into a 96 well plate. […] Quantitation was by HPLC with reference to a standard solution of approximately 0.25 mg·ml^−1 in DMSO. Different volumes of the standard, diluted and undiluted sample solutions were injected.
Analysis was performed on an Agilent HP1100 series system equipped with a diode array detector and using ChemStation software vB.02.01-SR1.

[2] = Thermal analysis by DSC and TGA; settings: 10° C./min; for temperature of mass loss(es) on heating: TGA, Form 1: two distinct mass losses (FIG. 13), free base: a mass loss, probably water (FIG. 14)
Description: Differential Scanning Calorimetry (DSC)
DSC data were collected on a Mettler DSC 823e equipped with a 34 position auto-sampler. The instrument was calibrated for energy and temperature using certified indium. Typically 0.5-3 mg of each sample, in a pin-holed aluminium pan, was heated at 10° C./min from 25° C. to 300° C. A nitrogen purge at 50 ml/min was maintained over the sample.
Thermogravimetric Analysis (TGA)
TGA data were collected on a Mettler TGA/SDTA 851e equipped with a 34 position auto-sampler. The instrument was temperature calibrated using certified indium. Typically 5-30 mg of each sample was loaded onto a pre-weighed aluminium crucible and was heated at 10° C./min from ambient temperature to 400° C. A nitrogen purge at 50 ml/min was maintained over the sample.
Thermal analysis of Form 2 crystalline polymorph (a sample obtained using the method in Example 6) by DSC and TGA was undertaken using the method describe in General Methods. […]

[3] = Gravimetric vapour sorption (GVS); settings: 25° C.
Description: Gravimetric Vapour Sorption (GVS)
Sorption isotherms were obtained using a SMS DVS Intrinsic moisture sorption analyser, controlled by DVS Intrinsic Control software v1.0.0.30. The sample temperature was maintained at 25° C. by the instrument controls. The humidity was controlled by mixing streams of dry and wet nitrogen, with a total flow rate of 200 ml/min The relative humidity was measured by a calibrated Rotronic probe (dynamic range of 1.0-100% RH), located near the sample. The weight change, (mass relaxation) of the sample as a function of % RH was constantly monitored by the microbalance (accuracy ±0.005 mg).
Typically 5-20 mg of sample was placed in a tared mesh stainless steel basket under ambient conditions. The sample was loaded and unloaded at 40% RH and 25° C. (typical room conditions). A moisture sorption isotherm was performed as outlined below (2 scans giving 1 complete cycle). The standard isotherm was performed at 25° C. at 10% RH intervals over a 0-90% RH range. Data analysis was undertaken in Microsoft Excel using DVS Analysis Suite v6.0.0.7.
The sample was recovered after completion of the isotherm and re-analysed by XRPD.
Gravimetric vapour sorption analysis of Form 2 crystalline polymorph (a sample obtained using the method in Example 6) was undertaken using the method described in General Methods.

[4] = Solid state 13C NMR, environmental dependence of ketone:hydrate ratio; settings: as prepared 67:33
Description: The analysis was carried out using a Varian VNMRS instrument operating at 100.56 MHz for ^13C (399.88 MHz for 1H) and 376.24 MHz for ^19F with a 4 mm (rotor o.d.) magic-angle spinning probe. Carbon-13 spectra were recorded from the sample using a crosspolarization magic-angle spinning (CPMAS) technique without and with dipolar dephasing (interrupted decoupling). Appropriate acquisition conditions were established using a set of short trial measurements: recycle 5 s, contact time 5 ms. A sample spin-rate of 10.0 kHz was used along with two-pulse phase-modulated (TPPM) 1H decoupling (at a radiofrequency field approximately equivalent to 75 kHz). The sample was run as-received and at ambient probe temperature (˜30° C. at this spin rate). Spectra are referenced with respect to neat tetramethylsilane (by setting the high-frequency line from adamantane to 38.5 ppm). The ^19F spectrum was obtained by direct excitation following a 3.6 μs 90° pulse, with a 60 s relaxation delay, at spin rate of 14 kHz and with no 1H decoupling. The spectrum is referenced relative to CFCI3.
The analysis was carried out using a Varian VNMRS instrument operating at 100.56 MHz for ^13C (399.88 MHz for 1H) and a 6 mm (rotor o.d.) magic-angle spinning probe. Carbon-13 spectra were recorded from the sample using a cross-polarization magic-angle spinning (CPMAS) technique. […]
The ^13C solid state NMR spectrum of a sample of Form 2 crystalline polymorph produced using the method of Example 5 is illustrated in FIG. 5. Based on the integration of the 208 ppm (ketone) and 102 ppm (hydrate) signals, the ketone:hydrate ratio was determined to be 67:33.
The ^13C solid state NMR spectrum illustrated in FIG. 6 was recorded after the sample had been stored at a relative humidity of <2% for one week. […] The ^13C solid state NMR spectrum shown in FIG. 7 was recorded after the sample had been stored at 75% RH for one week. […] The ^13C solid state NMR spectrum shown in FIG. 8 was recorded at 80° C. and gives a ketone content of 68%.

C#C[C@@H]1CN(C(=O)[C@H](CC(C)C)NC(=O)c2ccc(-c3nc(N4CCN(C)CC4)sc3F)cc2)[C@@H]2C(=O)CO[C@H]12 [Compound I free base, N-[1-6-(ethynyl-3-oxo-hexahydro-furo[3,2-b]pyrrole-4-carbonyl)-3-methyl-butyl]-4-[5-fluoro-2-(4-methyl-piperazin-1-yl)thiazol-4-yl]-benzamide]
solubility at 24 h ([1]; pH 5.8, thermodynamic from solid, suspension in water equilibrated at 25° C. for 24 hours, filtered, HPLC, pH of each suspension printed in same cell): 300 µg/mL (≈ 528 µM)
pH measured after equilibration of the solubility suspension ([1]; water, 25° C., 24 hours): 5.8
temperature of mass loss(es) on heating [2]: below 110 °C

N-[1-6-(ethynyl-3-oxo-hexahydro-furo[3,2-b]pyrrole-4-carbonyl)-3-methyl-butyl]-4-[5-fluoro-2-(4-methyl-piperazin-1-yl)thiazol-4-yl]-benzamide monohydrochloride and N-[1-6-(ethynyl-3-oxo-hexahydro-furo[3,2-b]pyrrole-4-carbonyl)-3-methyl-butyl]-4-[5-fluoro-2-(4-methyl-piperazin-1-yl)thiazol-4-yl]-benzamide hydrate monohydrochloride [Form 2 crystalline polymorph]
reversibility of water uptake ([3]; 0-90% RH range): reversible
water uptake ([3]; over the 0-90% RH range): ~2.2%
ketone share of ketone/hydrate signal intensity ([4]; after storage at 75% RH for one week (FIG. 7)): 67%
ketone share of ketone/hydrate signal intensity ([4]; after storage at relative humidity <2% for one week (FIG. 6)): 67%
ketone content ([4]; spectrum recorded at 80° C. (FIG. 8)): 68%
temperature at which degradation begins ([2]; DSC/TGA, nitrogen, small mass loss until this temperature (FIG. 12)): 160 °C

C#CC1CN(C(=O)C(CC(C)C)NC(=O)c2ccc(-c3nc(N4CCN(C)CC4)sc3F)cc2)C2C(=O)COC12.Cl (stereo not shown) [Form 1 crystalline polymorph, N-[1-6-(ethynyl-3-oxo-hexahydro-furo[3,2-b]pyrrole-4-carbonyl)-3-methyl-butyl]-4-[5-fluoro-2-(4-methyl-piperazin-1-yl)thiazol-4-yl]-benzamide monohydrochloride]
temperature of mass loss(es) on heating [2]: below 160 °C

— patent US9650388B2, “Form 2 crystalline polymorph of a salt of N-[1-6-(ethynyl-3-oxo-hexahydro-furo[3,2-B]pyrrole-4-carbonyl)-3-methyl-butyl]-4-[5-fluoro-2-(4-methyl-piperazinyl) thiazol-4-yl]-benzamide useful as cysteine protease inhibitor” (MEDIVIR AB, priority 2013, dated 2017)
